Drawing on patent publication US6620820B2, “Inhibitors of bone reabsorption and antagonists of vitronectin receptors” (Hoechst Aktiengesellschaft, priority 1996, dated 2003), this text covers IC50 for eight compounds.

The structures appear in SMILES notation.

The target of one test is T1, human vitronectin receptor (VnR) αVβ3 (Homo sapiens, UniProt P05106+P06756).
T1 construct: Human vitronectin receptor is isolated from the human placenta using the method of Pytela et al; from tissue; host or cells: human placenta (alternatively 293 cells cotransfected with αV and β3 DNA)
T1 sequence (P06756 31-889 limits assumed): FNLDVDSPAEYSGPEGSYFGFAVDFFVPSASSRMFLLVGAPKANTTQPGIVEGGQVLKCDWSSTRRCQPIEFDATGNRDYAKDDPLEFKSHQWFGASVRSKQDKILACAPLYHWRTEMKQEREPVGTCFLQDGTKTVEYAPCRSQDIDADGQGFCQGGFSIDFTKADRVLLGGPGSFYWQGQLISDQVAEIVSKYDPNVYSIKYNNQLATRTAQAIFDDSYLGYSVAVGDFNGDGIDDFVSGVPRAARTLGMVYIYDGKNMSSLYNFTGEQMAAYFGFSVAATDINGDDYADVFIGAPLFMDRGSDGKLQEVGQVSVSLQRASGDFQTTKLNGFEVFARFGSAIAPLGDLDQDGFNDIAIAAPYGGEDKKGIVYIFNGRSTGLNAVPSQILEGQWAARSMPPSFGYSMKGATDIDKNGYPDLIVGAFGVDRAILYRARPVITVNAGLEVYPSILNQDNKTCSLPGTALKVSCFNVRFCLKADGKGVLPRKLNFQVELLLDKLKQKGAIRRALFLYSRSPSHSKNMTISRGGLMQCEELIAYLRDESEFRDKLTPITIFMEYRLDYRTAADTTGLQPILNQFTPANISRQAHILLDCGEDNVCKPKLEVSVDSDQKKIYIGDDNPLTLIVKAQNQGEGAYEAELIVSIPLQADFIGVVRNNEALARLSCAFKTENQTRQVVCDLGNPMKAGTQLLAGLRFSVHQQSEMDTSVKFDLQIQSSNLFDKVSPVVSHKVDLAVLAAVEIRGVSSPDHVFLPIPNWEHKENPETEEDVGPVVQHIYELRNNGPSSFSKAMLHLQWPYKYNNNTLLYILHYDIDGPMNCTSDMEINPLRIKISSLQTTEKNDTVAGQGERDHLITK
T1 sequence (P06756 891-1048 partner limits assumed): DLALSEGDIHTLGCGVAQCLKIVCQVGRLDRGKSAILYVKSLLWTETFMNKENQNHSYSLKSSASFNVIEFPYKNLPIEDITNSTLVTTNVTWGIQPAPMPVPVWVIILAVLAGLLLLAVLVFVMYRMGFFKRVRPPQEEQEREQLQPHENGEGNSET
T1 sequence (P05106 27-788): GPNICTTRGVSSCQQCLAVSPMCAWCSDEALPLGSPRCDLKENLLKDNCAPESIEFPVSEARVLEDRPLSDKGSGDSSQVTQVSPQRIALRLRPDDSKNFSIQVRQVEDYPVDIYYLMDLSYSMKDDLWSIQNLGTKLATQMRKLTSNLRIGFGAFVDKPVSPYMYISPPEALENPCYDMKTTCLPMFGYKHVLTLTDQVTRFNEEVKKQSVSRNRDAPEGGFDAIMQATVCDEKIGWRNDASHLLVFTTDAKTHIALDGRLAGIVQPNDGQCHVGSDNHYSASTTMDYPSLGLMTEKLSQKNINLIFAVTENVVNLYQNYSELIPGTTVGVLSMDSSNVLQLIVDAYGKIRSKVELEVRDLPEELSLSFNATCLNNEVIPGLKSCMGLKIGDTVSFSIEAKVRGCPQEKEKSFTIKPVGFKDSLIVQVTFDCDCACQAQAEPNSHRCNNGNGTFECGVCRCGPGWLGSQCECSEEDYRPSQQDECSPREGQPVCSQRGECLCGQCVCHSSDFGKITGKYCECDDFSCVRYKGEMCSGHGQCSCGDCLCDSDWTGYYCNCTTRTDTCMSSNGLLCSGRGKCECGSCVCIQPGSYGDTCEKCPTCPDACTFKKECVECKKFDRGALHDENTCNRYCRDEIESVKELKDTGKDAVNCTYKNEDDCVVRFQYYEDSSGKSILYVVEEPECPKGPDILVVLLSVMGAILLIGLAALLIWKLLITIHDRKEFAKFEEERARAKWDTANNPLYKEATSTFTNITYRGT
The experiment in a line: Inhibition of the binding of Kistrin to human vitronectin receptor (VnR) αVβ3: ELISA test (Kistrin/VnR). The settings on record: plates coated with Kistrin, test method 2. Here is the method:
Nunc Maxisorb 96-well microtiter plates are coated, at 4° C. overnight, with a solution of human vitronectin (0.002 mg/ml, 0.05 ml/well) in PBS (phosphate-buffered sodium chloride solution). The plates are washed twice with PBS/0.05% Tween 20 and blocked by incubating them (for 60 min) with bovine serum albumin (BSA, 0.5%, RIA grade or better) in tris-HCl (50 mM), NaCl (100 mM), MgCl2 (1 mM), CaCl2 (1 mM), MnCl2 (1 mM), pH 7. Solutions of known inhibitors and of the test substances, in concentrations of 2×10^−12−2×10^−6 mol/l, are prepared in assay buffer [BSA (0.5%, RIA grade or better) in tris-HCl (50 mM/l), NaCl (100 mM), MgCl2 (1 mM), CaCl2 (1 mM), MnCl2 (1 mM), pH 7]. The blocked plates are emptied and in each case 0.025 ml of this solution, which contains a defined concentration (from 2×10^−12 to 2×10^−6) of either a known inhibitor or a test substance, is added to each well. 0.025 ml of a solution of the vitronectin receptor in the test buffer (0.03 mg/ml) is pipetted into each well of the plate and the plate is then incubated at room temperature on a shaker for 60-180 min. In the meantime, a solution (6 ml/plate) of a murine monoclonal antibody which is specific for the β3 subunit of the vitronectin receptor is prepared in the assay buffer (0.0015 mg/ml). A second rabbit antibody, which represents an anti-mouse Fc HRP antibody conjugate, is added to this solution (0.001 ml of stock solution/6 ml of the murine mono-clonal anti-β3 antibody solution) and this mixture of the murine anti-β3 antibody and the rabbit anti-mouse Fc HRP antibody conjugate is allowed to incubate while the receptor/inhibitor incubation is in progress. The test plates are washed 4 times with PBS solution containing 0.05% Tween-20 and 0.05 ml of the antibody mixture is in each case pipetted into each well of the plate, which is then incubated for 60-180 min. The plate is washed 4 times with PBS/0.05% Tween-20 and then developed with 0.05 ml/well of a PBS solution which contains 0.67 mg/ml o-phenylenediamine and 0.012% H2O2. Alternatively, o-phenylenediamine can be used in a buffer (pH 5) which contains Na3PO4 (50 mM) and citric acid (0.22 mM). The color development is stopped with 1N H2SO4 (0.05 ml/well). The absorption of each well is measured at 492-405 nm and the data are evaluated using standard methods.
Inhibition of the binding of Kistrin to human vitronectin receptor (VnR) αVβ3: ELISA test
(In the listing of the test results, test method 2 is abbreviated to Kistrin/VnR)
1. Purification of Kistrin
Kistrin is purified using the methods of Dennis et al., as described in Proc. Natl. Acad. Sci. USA 1989, 87, 2471-2475 and PROTEINS: Structure, Function and Genetics 1993, 15, 312-321.
2. Purification of human vitronectin receptor (αVβ3) see test method 1.
3. Monoclonal antibodies see test method 1.
The ability of substances to inhibit the binding of Kistrin to the vitronectin receptor can be elucidated using an ELISA test. For this purpose, Nunc 96-well microtiter plates are coated with a solution of Kistrin (0.002 mg/ml) in accordance with the method of Dennis et al., as described in PROTEINS: Structure, Function and Genetics 1993, 15, 312-321. The subsequent experimental implementation of the ELISA test is as described in test method1, item 4.
In general, IC50 refers to the concentration at which inhibition is half-maximal. Take `O=C(CN1C(=O)N[C@@H](CCCNC2=NCCN2)C1=O)NC[C@H](NC(=O)OCc1ccccc1)C(=O)O` [Example 1, (2S)-Benzoylcarbonylamino-3-[2-((4S)-(3-(4,5dihydro-1H-imidazol-2-ylamino)propyl)-2,5-dioxoimidazolidin-1-yl)acetylamino]propionic Acid]: the IC50 came to 20 nM.
Consider `N=C(N)NC(=O)NC[C@@H]1NC(=O)N(CC(=O)NC[C@H](NC(=O)OCc2ccccc2)C(=O)O)C1=O` [Example 3, (2S)-Benzyloxycarbonylamino-3-[((4S)-(guanidinoacylaminomethyl)-2,5-dioxoimidazolidin-1-yl)acetylamino]propionic Acid], for which the IC50 was 360 nM.
The same measure, in the same setting: in the case of `O=C(CN1C(=O)N[C@@H](CCCNc2ncccn2)C1=O)NC[C@H](NC(=O)OCc1ccccc1)C(=O)O` [Example 4, (2S)-Benzyloxycarbonylamino-3-[((4S)-(3-(2-pyrimidylamino)propyl)-2,5-dioxoimidazolidin-1-yl)acetylamino]propionic Acid] it was 1660 nM; in that of `O=C(CN1C(=O)N[C@@H](CCCNc2nc3ccccc3[nH]2)C1=O)NC[C@H](NC(=O)OCc1ccccc1)C(=O)O` [Example 5, (2S)-Benzyloxycarbonylamino-3-[((4S)-(3-(benzimidazolyl-2-amino)-propyl)-2,5-dioxoimidazolidin-1-yl)acetylamino]propionic Acid], 40 nM.
`O=C(CN1C(=O)N[C@@H](CC(=O)NNC2=NCCN2)C1=O)NC[C@H](NC(=O)OCc1ccccc1)C(=O)O` [Example 7, (2S)-Benzyloxycarbonylamino-3-[2-((4S)-(N′-(4,5-dihydro-1H-imidazol-2-yl)-hydrazinocarbonylmethyl]-2,5-dioxoimidazolidin-1-yl)acetylamino]propionic Acid] registered an IC50 of 580 nM.
Same read-out and setting: in the case of `O=C(CN1C(=O)N[C@@H](CC(=O)NNC2=NCCCN2)C1=O)NC[C@H](NC(=O)OCc1ccccc1)C(=O)O` [Example 8, (2S)-Benzyloxycarbonylamino-3-[2-(2,5-dioxo-(4S)-(N′-(1,4,5,6-tetrahydro-pyrimidin-2-yl)hydrazinocarbonylmethyl)imidazolidin-1-yl)acetylamino]propionic Acid] it was 130 nM.
In turn, `O=C(CN1C(=O)N[C@@H](CCc2nc3ccccc3[nH]2)C1=O)NC[C@H](NC(=O)OCc1ccccc1)C(=O)O` [Example 18] returned an IC50 of 810 nM.
`N=C(N)NC(=O)CC[C@@H]1NC(=O)N(CC(=O)NC[C@H](NC(=O)OCc2ccccc2)C(=O)O)C1=O` [Example 19, (2S)-Benzyloxycarbonylamino-3-[2-((4S)-(3-guanidino-3-oxopropyl) -2,5-dioxoimidazolidin-1-yl)acetylamino]propionic Acid] returned an IC50 of 20 nM.

For the next test, the target named is T1, human vitronectin receptor (VnR) αVβ3. The experiment in a line: Inhibition of the binding of human vitronectin (Vn) to human vitronectin receptor (VnR) αVβ3: ELISA test (Vn/VnR). The settings on record: plates coated with human vitronectin, test method 1. The text has this: Inhibition of the binding of human vitronectin (Vn) to human vitronectin receptor (VnR) αVβ3: ELISA-Test.
(In the listing of the test results, test method 1 is abbreviated to Vn/VnR)
1. Purification of human vitronectin
Human vitronectin is isolated from human plasma and purified by affinity chromatography using the method of Yatohyo et al., Cell Structure and Function, 1988, 23, 281-292.
2. Purification of human vitronectin receptor (αVβ3)
Human vitronectin receptor is isolated from the human placenta using the method of Pytela et al., Methods Enzymol. 1987, 144, 475. Human vitronectin receptor αVβ3 can also be isolated from some cell lines (for example from 293 cells, a human embryonic kidney cell line) which are cotransfected with DNA sequences for the two subunits, αV and β3, of the vitronectin receptor. The subunits are extracted with octylglycoside and subsequently chromatographed on concanavalin A, heparin-Sepharose and S-300. […]
Nunc Maxisorb 96-well microtiter plates are coated, at 4° C. overnight, with a solution of human vitronectin (0.002 mg/ml, 0.05 ml/well) in PBS (phosphate-buffered sodium chloride solution). […] The absorption of each well is measured at 492-405 nm and the data are evaluated using standard methods.
In the case of `O=C(CN1C(=O)N[C@@H](CCCNC2=NCCN2)C1=O)NC[C@H](NC(=O)OCc1ccccc1)C(=O)O` [Example 1, (2S)-Benzoylcarbonylamino-3-[2-((4S)-(3-(4,5dihydro-1H-imidazol-2-ylamino)propyl)-2,5-dioxoimidazolidin-1-yl)acetylamino]propionic Acid], the IC50 amounted to 8 nM.
